# Tested on: HIV-1 LAI
# Test: microbe, parasite or virus in culture
# Conditions: for EC50: Human immunodeficiency virus 1, MT2, 120 h; for Combination Indices at % HIV Inhibition (Confidence Interval) 50%: 50% HIV inhibition; for Combination Indices at % HIV Inhibition (Confidence Interval) 50% / Combination Indices at % HIV Inhibition (Confidence Interval) 75% / Combination Indices at % HIV Inhibition (Confidence Interval) 90%: 95% CI in parenthesis; for Combination Indices at % HIV Inhibition (Confidence Interval) 75%: 75% HIV inhibition; for Combination Indices at % HIV Inhibition (Confidence Interval) 90%: 90% HIV inhibition; for Overall Result: two-drug combination with Compound 1, all ratios and effect levels, MT-2/HIV-1 LAI, RT assay
# Procedure: Virus and cell lines. The T-cell lines, MT-2 and PM-1 were obtained through the AIDS Research and Reference Reagent Program, NIAID, and were contributed by Dr. D. Richman and Dr. R. Gallo, respectively. Both cell lines were cultured in RPMI 1640 medium supplemented with 10% fetal bovine serum, 2 mM L-glutamine and sub-cultured twice a week. The LAI strain of HIV-1 was obtained from the Fred Hutchinson Cancer Research Center, and the Bal strain was from NIH. Both virus stocks were amplified and titered in MT-2 cells (LAI) and PM-1 cells (Bal) using a virus infectivity assay.
# Drug Susceptibility and Cytotoxicity Assays. For drug susceptibility assays, MT-2 cells were infected with HIV-1 LAI (or PM-1 cells with HIV-1 Bal) at an MOI of 0.005, and seeded into 96-well microtiter plates (0.1×10^6 cells/ml) containing serial dilutions of test compounds. […] Each drug ratio consisted of an array of 3-fold serial dilutions, and was performed in quadruplicate. The plates were incubated at 37° C./5% CO2. The MT-2 cells infected with HIV-1 LAI were incubated for 5 days. On day-five post-infection, 20 μl from each well was harvested and quantitated by a reverse transcriptase (RT) assay, or in samples involving non-nucleoside RT inhibitors, an MTS assay. The PM-1 cells infected with HIV-1 Bal and used for studying the combinations with CCR5 inhibitors were incubated for six days. On day-six post-infection, 20 μl from each well was harvested, 20- and 50-fold diluted and quantitated by p24 assay. Cytotoxicity assays were performed using uninfected cells, exposed to the same drug combinations, and incubated for six days. Cell viability was determined by an XTT assay. The CC50 values were calculated by using the exponential form of the median effect equation as mentioned below for calculation of EC50.
# Analysis of Drug Combination Effects. For determination of CI values, drugs were diluted in a fixed ratio and multiple ratios were analyzed. The drug serial dilutions spanned a range of concentrations near the EC50 value of each compound, so that equivalent antiviral activities could be compared. Concentration-response curves were estimated for each individual drug and every combination using the median-effect equation. The equation was fit using a nonlinear regression routine (Proc Nlin) in PC SAS version 8.01 (SAS Institute Inc., SAS Version 8.01, Cary, N.C.: SAS Institute Inc., 1990).
# In this equation, Fa stands for “fraction affected,” and represents the fraction of the viral load that has been inactivated. […] ED50 is drug concentration that is expected to reduce the amount of virus by 50%, and m is a parameter that reflects the slope of the concentration-response curve.
# To assess antiviral effects of different drug combination treatments, combination indices (CIs) were calculated according to Chou and Rideout. The combination index was computed as CI=[D]1/[Dm]1+[D]2/[Dm]2
# In this equation [Dm]1 and [Dm]2 are the concentrations of drugs that would individually produce a specific level of effect, while [D]1 and [D]2 are the concentrations of drugs in combination that would produce the same level of effect.
# Theoretically, additivity is implied if the CI is equal to one, synergy if the CI is less than one, and antagonism if the CI is greater than one. […] At best, we can construct a range that contains the likely values for the CI, given the noise in the data. In this report, these ranges are reported in parentheses next to each point estimate of the CI. […] If the range fell entirely above 1.0, we would infer antagonistic behavior. If the range were to include 1.0, we would infer additivity.
# In carrying out the combination experiments below, the EC50 for Compound 1 and each comparator compound was determined during the course of each study, and used in the subsequent data analysis.
# [1] = combination with Compound 1, EC50 ratio 1:1 (Compound 1:comparator)
# [2] = combination with Compound 1, EC50 ratio 1:1
# [3] = combination with Compound 1, EC50 ratio 1:2.5
# [4] = combination with Compound 1, EC50 ratio 2.5:1
SMILES,EC50 [nM],Combination Indices at % HIV Inhibition (Confidence Interval) 50% [1],Combination Indices at % HIV Inhibition (Confidence Interval) 75% [2],Combination Indices at % HIV Inhibition (Confidence Interval) 90% [2],Combination Indices at % HIV Inhibition (Confidence Interval) 50% [3],Combination Indices at % HIV Inhibition (Confidence Interval) 75% [3],Combination Indices at % HIV Inhibition (Confidence Interval) 90% [3],Combination Indices at % HIV Inhibition (Confidence Interval) 50% [4],Combination Indices at % HIV Inhibition (Confidence Interval) 75% [4],Combination Indices at % HIV Inhibition (Confidence Interval) 90% [4],Overall Result,Overall Result (listed as zidovudine),Overall Result (listed as indinavir),Overall Result (listed as stavudine),Overall Result (listed as saquinavir),Overall Result (listed as amprenavir)
"Cc1cn([C@H]2C[C@H](N=[N+]=[N-])[C@@H](CO)O2)c(=O)[nH]c1=O [Zidovudine, zidovudine]",3,"1.06 (0.85, 1.27)","0.99 (0.72, 1.26)","0.93 (0.53, 1.34)","1.21 (1.01, 1.40)","0.95 (0.74, 1.16)","0.76 (0.50, 1.02)","0.81 (0.69, 0.92)","0.70 (0.56, 0.83)","0.60 (0.42, 0.79)",Additive-,additive to synergistic,–,–,–,–
"CC(C)(C)NC(=O)[C@@H]1CN(Cc2cccnc2)CCN1C[C@@H](O)C[C@@H](Cc1ccccc1)C(=O)N[C@H]1c2ccccc2C[C@H]1O [Indinavir, indinavir]",0.7,"0.55 (0.46, 0.64)","0.57 (0.45, 0.70)","0.61 (0.39, 0.83)","0.35 (0.24, 0.47)","0.21 (0.17, 0.24)","0.32 (0.20, 0.43)","0.31 (0.22, 0.40)","0.41 (0.27, 0.55)","0.54 (0.20, 0.87)",Synergistic,–,strong synergistic effects,–,–,–
"Cc1cn([C@H]2C=C[C@@H](CO)O2)c(=O)[nH]c1=O [Stavudine, stavudine]",250,"1.47 (1.16, 1.79)","0.60 (0.42, 0.78)","0.25 (0.13, 0.38)","0.50 (0.37, 0.64)","0.29 (0.18, 0.40)","0.18 (0.07, 0.28)","0.69 (0.47, 0.91)","0.55 (0.30, 0.80)","0.45 (0.12, 0.78)",Additive-,–,–,additive-synergistic,–,–
"CC(C)(C)NC(=O)[C@@H]1C[C@@H]2CCCC[C@@H]2CN1C[C@@H](O)[C@H](Cc1ccccc1)NC(=O)[C@H](CC(N)=O)NC(=O)c1ccc2ccccc2n1 [Saquinavir, saquinavir]",9,"0.97 (0.88, 1.07)","0.92 (0.76, 1.07)","0.87 (0.65, 1.09)","0.22 (0.20, 0.24)","0.26 (0.22, 0.29)","0.29 (0.24, 0.35)","1.07 (0.95, 1.20)","0.92 (0.74, 1.10)","0.80 (0.45, 1.14)",Additive-,–,–,–,additive to synergistic,–
"Nc1nc(NC2CC2)c2ncn([C@H]3C=C[C@@H](CO)C3)c2n1 [Abacavir, abacavir]",400,"0.29 (0.16, 0.42)","0.51 (0.20, 0.82)","0.91 (0.03, 1.78)","0.53 (0.36, 0.70)","0.61 (0.33, 0.88)","0.71 (0.21, 1.22)","0.36 (0.27, 0.45)","0.52 (0.34, 0.71)","0.76 (0.34, 1.19)",–,–,–,–,–,–
CC[C@H](C)[C@H](NC(=O)[C@H](CCC(N)=O)NC(=O)[C@H](C)NC(=O)[C@H](CCC(N)=O)NC(=O)[C@H](CCC(=O)O)NC(=O)[C@H](CC(C)C)NC(=O)[C@H](CC(C)C)NC(=O)[C@H](C)NC(=O)[C@@H](NC(=O)[C@@H](NC(=O)[C@H](CCCCN)NC(=O)[C@H](CCC(N)=O)NC(=O)[C@H](CCC(=O)O)NC(=O)[C@H](Cc1c[nH]c2ccccc12)NC(=O)[C@H](CCC(=O)O)NC(=O)[C@H](CCC(N)=O)NC(=O)[C@H](Cc1c[nH]c2ccccc12)NC(C)=O)[C@@H](C)CC)[C@@H](C)O)C(=O)N[C@@H](CCC(N)=O)C(=O)N[C@@H](CCC(N)=O)C(=O)N[C@@H](CCC(=O)O)C(=O)N[C@@H](CCCCN)C(=O)N[C@@H](CC(N)=O)C(=O)N[C@@H](CCC(=O)O)C(=O)N[C@@H](Cc1ccc(O)cc1)C(=O)N[C@@H](CCC(=O)O)C(=O)N[C@@H](CC(C)C)C(=O)N[C@@H](CCC(N)=O)C(=O)N[C@@H](CCCCN)C(=O)N[C@@H](CC(C)C)C(=O)N[C@@H](CC(=O)O)C(=O)N[C@@H](CCCCN)C(=O)N[C@@H](Cc1c[nH]c2ccccc12)C(=O)N[C@@H](C)C(=O)N[C@@H](CO)C(=O)N[C@@H](CC(C)C)C(=O)N[C@@H](Cc1c[nH]c2ccccc12)C(=O)N[C@@H](CCC(=O)O)C(=O)N[C@@H](Cc1c[nH]c2ccccc12)C(=O)N[C@@H](Cc1ccccc1)C(N)=O [Compound T-1249],–,"0.25 (0.20, 0.30)","0.14 (0.10, 0.19)","0.08 (0.04, 0.12)",0.32 (0.28 0.35),"0.17 (0.14, 0.19)","0.09 (0.06, 0.11)","0.19 (0.17, 0.22)","0.14 (0.12, 0.16)","0.10 (0.08, 0.13)",–,–,–,–,–,–
"CC(C)CN(C[C@@H](O)[C@H](Cc1ccccc1)NC(=O)O[C@H]1CCOC1)S(=O)(=O)c1ccc(N)cc1 [Amprenavir, amprenavir]",21,"0.89 (0.73, 1.06)","0.93 (0.68, 1.17)","0.96 (0.57, 1.36)","1.30 (0.84, 1.76)","1.08 (0.55, 1.62)","0.90 (0.20, 1.60)","0.41 (0.34, 0.48)","0.32 (0.25, 0.40)","0.25 (0.16, 0.35)",Additive-,–,–,–,–,additive to synergistic

# — patent US20050215543A1, “Methods of treating HIV infection” (priority 2004, published 2005)
